Literature values as cited in article PMC11901438, “Synthesis and Evaluation of Boron-Containing Heterocyclic Compounds with Antimicrobial and Anticancer Activities” (Molecules, 2025).
Converted amounts (≈) assume the structure as drawn.

Test system: Mycobacterium tuberculosis
Design: method as in PMID 33410233
Conditions: earlier work of the same laboratory; cited from earlier work

| Compound | MIC90 (CIM90) anti-Mycobacterium tuberculosis [µM] |
| --- | --- |
| O=C(Nc1ccc(N2CCN(c3ccc(F)cc3)CC2)c(F)c1)c1ccc2no[n+]([O-])c2c1 [Compound 3] | 3.82 (≈ 1.72 µg/mL) |
| O=C(Nc1ccc(N2CCN(c3ccccn3)CC2)c(F)c1)c1ccc2no[n+]([O-])c2c1 [Compound 1] | 0.09 (≈ 0.0391 µg/mL) |
| O=C(Nc1ccc(N2CCCCCC2)c(F)c1)c1ccc2no[n+]([O-])c2c1 [Compound 6] | 2.89 (≈ 1.07 µg/mL) |
| O=C(Nc1ccc(N2CCSCC2)c(F)c1)c1ccc2no[n+]([O-])c2c1 [Compound 4] | 0.70 (≈ 0.262 µg/mL) |
| O=C(Nc1ccc(N2CCOCC2)c(F)c1)c1ccc2no[n+]([O-])c2c1 [Compound 5] | 5.22 (≈ 1.87 µg/mL) |
| O=C(Nc1ccc(N2CCN(c3ncccn3)CC2)c(F)c1)c1ccc2no[n+]([O-])c2c1 [Compound 2] | 2.22 (≈ 0.967 µg/mL) |
